Source: patent US20230242544A1, “QUINAZOLINE COMPOUNDS, PREPARATION METHODS AND USES THEREOF” (INVENTISBIO CO., LTD., priority 2020, published 2023)

Columns and labels:
[1] = target: recombinant human KRAS^G12D protein (Homo sapiens, UniProt P01116, G12D); assay: Temperature-dependent Fluorescence (TdF) KRAS G12D protein binding assay; settings: 6 μM KRAS^G12D protein, 10 μM compound, Sypro Orange; Kd calculated from the fluorescent shift
Description: The Temperature-dependent Fluorescence (TdF) assay was used to analyze binding affinity of compound to recombinant human KRAS^G12D protein. The TdF assay was conducted in the 96-well-based real-time fluorescence plate reader (ABI 7500 or Roche LightCycler 480). Fluorescent dye Sypro Orange (Sigma) was used to monitor the protein folding-unfolding transition. Protein-compound binding was gauged by the shift in the unfolding transition temperature (ΔTm) acquired with and without compound. Each reaction sample consists of 6 μM KRAS^G12D Protein, 10 μM compound, and Sypro Orange dye (in 1% DMSO) in 20 μL reaction buffer (25 mM HEPES pH 7.5, 150 mM NaCl, 10 mM MgCl2). […] Binding affinity (Kd value) was calculated based on the degree of fluorescent shift of the protein with and without compound.

Ba/F3_KRAS^G12D cells = Ba/F3_KRAS^G12D cells (Homo sapiens, UniProt P01116, G12D, cells depend on it); assay: Ba/F3 KRAS G12D cell proliferation assay (CellTiter-Glo); format: cell-based; settings: treated for 3 days, cell-titer Glo, cell growth inhibition, read-out: BaF3_KRAS^G12D IC50
Description: Ba/F3_KRAS^G12D cells (KYinno, China) were generated by transducing Ba/F3 parental cells with the recombinant KRAS^G12D lentivirus and followed by 1 ug/mL of puromycin selection and IL3 depletion. […] Cells were seeded at a density of 5×10^3 per well into 96-well plate and incubated overnight. Serial diluted compounds were added to each well. Cells were treated with the compounds for 3 days, after which cell-titer Glo reagent (Promega #G7572) was used to assess cell proliferation. The luminescence signal was then collected on Tecan Spark plate reader. […] Cell growth inhibition of IC50 is calculated with the equation of Y=Bottom+(Top−Bottom)/(1+10^((Log IC50−X)*Hill Slope))

Sequence of recombinant human KRAS^G12D protein (P01116 1-188 isoform P01116-2 G12D): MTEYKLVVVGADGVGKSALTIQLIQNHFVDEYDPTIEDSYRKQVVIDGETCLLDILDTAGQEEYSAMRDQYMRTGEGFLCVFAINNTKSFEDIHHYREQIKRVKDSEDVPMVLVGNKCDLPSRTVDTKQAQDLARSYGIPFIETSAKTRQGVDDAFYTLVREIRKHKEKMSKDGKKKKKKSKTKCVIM
Sequence of Ba/F3_KRAS^G12D cells (P01116 whole entry G12D): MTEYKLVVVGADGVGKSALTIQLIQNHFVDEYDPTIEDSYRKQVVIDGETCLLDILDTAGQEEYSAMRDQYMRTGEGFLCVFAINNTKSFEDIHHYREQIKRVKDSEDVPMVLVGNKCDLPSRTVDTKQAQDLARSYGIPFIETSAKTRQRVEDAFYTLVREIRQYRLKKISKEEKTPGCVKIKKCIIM

Compound | Kd [1] | GI50 (Ba/F3_KRAS^G12D cells)
Oc1cc(-c2c(Cl)cc3c(N4CC5CCC(C4)N5)nc(OC[C@@]45CCCN4C[C@H](F)C5)nc3c2F)c2ccccc2c1 (single isomer, unassigned) [Compound 107] | < 500 nM | < 500 nM
N#Cc1cc2c(N3CC4CCC(C3)N4)nc(OC[C@@]34CCCN3C[C@H](F)C4)nc2c(F)c1-c1ccc(F)c2sc(N)nc12 [Compound 112] | < 500 nM | 
Cc1cc(N)nc(-c2c(Cl)cc3c(N4CCN[C@@H](CC#N)C4)nc(OC[C@@H]4C[C@@H](F)CN4C)nc3c2F)c1C(F)(F)F [Compound 135] | > 5000 nM | > 5000 nM
C[C@@H]1CN(c2nc(OCC3CN(C)C3)nc3c(F)c(-c4cc(O)cc5ccccc45)c(Cl)cc23)[C@@H](C)CN1 [Compound 36] | > 5000 nM | 500 to 5000 nM
Nc1nc2c(-c3c(Cl)cc4c(N5CC6CCC(C5)N6)ncnc4c3F)ccc(F)c2s1 [Compound 140] | 500 to 5000 nM | 500 to 5000 nM
Cc1ccc2[nH]ncc2c1-c1c(C#N)cc2c(N3CC4CCC(C3)N4)nc(OC[C@@]34CCCN3C[C@H](F)C4)nc2c1F [Compound 92] | < 500 nM | < 500 nM
C[C@@H]1CN(c2nc(OC[C@@H]3CCCN3C)nc3c(F)c(-c4cc(O)cc5cccc(Cl)c45)c(Cl)cc23)[C@@H](C)CN1 [Compound 21] | > 5000 nM | 500 to 5000 nM
CN1CCOCC1COc1nc(N2CC3CCC(C2)N3)c2cc(Cl)c(-c3cc(O)cc4ccccc34)c(F)c2n1 (stereo not drawn) [Compound 57] | > 5000 nM | 500 to 5000 nM
Fc1c(-c2cccc3ccccc23)c(Cl)cc2c(N3CC4CCC(C3)N4)nc(OCC34CCCN3CCC4)nc12 [Compound 69] | 500 to 5000 nM | 500 to 5000 nM
Oc1cccc(F)c1-c1c(Cl)cc2c(N3C4CCC3CNC4)nc(OCC34CCCN3CCC4)nc2c1F [Compound 67] | 500 to 5000 nM | > 5000 nM
Oc1cc(-c2c(Cl)cc3c(N4CC5CCC(C4)N5)nc(OC[C@@]45CCCN4C[C@H](F)C5)nc3c2F)c2ccccc2c1 (single isomer, unassigned) [Compound 108] | > 5000 nM | 500 to 5000 nM
Oc1cc(-c2c(Cl)cc3c(N4CC5CCC(C4)N5)nc(OCC45CCCN4CCC5)nc3c2F)c2c(Cl)c(F)ccc2c1 [Compound 71] | < 500 nM | 
C#Cc1c(F)ccc2cc(O)cc(-c3c(OCC)cc4c(N5CC6CCC(C5)N6)nc(OC[C@@]56CCCN5C[C@H](F)C6)nc4c3F)c12 [Compound 160] |  | < 500 nM
CN1CCO[C@@H](COc2nc(N3CC4CCC(C3)N4)c3cc(Cl)c(-c4cc(O)cc5ccccc45)c(F)c3n2)C1 [Compound 37] |  | 500 to 5000 nM
Oc1cc(-c2c(Cl)cc3c(N4CC5CCC(C4)N5)nc(OC[C@@]45CCCN4C[C@H](F)C5)nc3c2F)c2ccccc2c1 [Compound 68] | < 500 nM | 
CCc1c(F)ccc2cc(O)cc(-c3c(OC)cc4c(N5CC6CCC(C5)N6)nc(OC[C@@]56CCCN5C[C@H](F)C6)nc4c3F)c12 [Compound 164] |  | < 500 nM
C#Cc1c(F)ccc2cc(O)cc(-c3ccc4c(N5CC6CCC(C5)N6)nc(OC[C@@]56CCCN5C[C@H](F)C6)nc4c3F)c12 [Compound 170] |  | < 500 nM
CCc1c(F)ccc2cc(O)cc(-c3c(Cl)cc4c(N5CC6CCC(C5)N6)nc(OC[C@@]56CCCN5C[C@H](F)C6)nc4c3F)c12 (single isomer, unassigned) [Compound 147] |  | < 500 nM
CN1CC(F)(F)CC1COc1nc(N2CC3CCC(C2)N3)c2cc(Cl)c(-c3cc(O)cc4ccccc34)c(F)c2n1 (stereo not drawn) [Compound 34] |  | 500 to 5000 nM
C#Cc1c(F)ccc2cc(O)cc(-c3c(F)cc4c(N5CC6CCC(C5)N6)nc(OC[C@@]56CCCN5C[C@H](F)C6)nc4c3F)c12 (single isomer, unassigned) [Compound 165] |  | < 500 nM
C#Cc1c(F)ccc2cc(O)cc(-c3cc(OC)c4c(N5CC6CCC(C5)N6)nc(OC[C@@]56CCCN5C[C@H](F)C6)nc4c3F)c12 [Compound 167] |  | < 500 nM

Compound | Kd [1] | GI50 (Ba/F3_KRAS^G12D cells)
CN1CCC[C@H]1COc1nc(NC2CNC2)c2cc(Cl)c(-c3cc(O)cc4cccc(Cl)c34)c(F)c2n1 [Compound 15] | > 5000 nM | 
N#Cc1cc2c(N3CC4CCC(C3)N4)nc(OCC34CCCN3CCC4)nc2c(F)c1-c1cc(O)cc2ccccc12 [Compound 73] | < 500 nM | 
CCc1c(F)ccc2cc(O)cc(-c3c(C#N)cc4c(N5CC6CCC(C5)N6)nc(OC[C@@]56CCCN5C[C@H](F)C6)nc4c3F)c12 [Compound 149] |  | < 500 nM
N#Cc1cc2c(N3CC4CCC(C3)N4)nc(OC[C@@]34CCCN3C[C@H](F)C4)nc2c(F)c1-c1c(O)cccc1F [Compound 90] |  | > 5000 nM
CCOc1cc2c(N3CC4CCC(C3)N4)nc(OC[C@@]34CCCN3C[C@H](F)C4)nc2c(F)c1-c1cc(O)cc2cccc(CC)c12 [Compound 157] |  | 500 to 5000 nM
Cc1cc(N)nc(-c2c(SC(F)(F)F)cc3c(N4CCNC[C@@H]4C)nc(OC[C@@H]4CCCN4C)nc3c2F)c1C(F)(F)F [Compound 136] | > 5000 nM | 
CCOc1cc2c(N3CC4CCC(C3)N4)nc(OC[C@@]34CCCN3C[C@H](F)C4)nc2c(F)c1-c1cc(O)cc2cccc(CC)c12 [Compound 156] |  | < 500 nM
CCc1c(F)ccc2cc(O)cc(-c3c(Cl)cc4c(N5CC6CCC(C5)N6)nc(OC[C@@]56CCCN5C[C@H](F)C6)nc4c3F)c12 (single isomer, unassigned) [Compound 148] |  | < 500 nM
CCOc1cc2c(N3CC4CCC(C3)N4)nc(OC[C@@]34CCCN3C[C@H](F)C4)nc2c(F)c1-c1cc(O)cc2ccc(F)c(CC)c12 [Compound 158] |  | < 500 nM
Oc1cccc(F)c1-c1c(Cl)cc2c(N3CC4CCC(C3)N4)nc(OCC34CCCN3CCC4)nc2c1F [Compound 63] | 500 to 5000 nM | 
CC(C)N1CCC(Oc2nc(N3CC4CCC(C3)N4)c3cc(Cl)c(-c4cc(O)cc5ccccc45)c(F)c3n2)C1 (stereo not drawn) [Compound 84] | > 5000 nM | 
COc1nc(N2CC3CCC(C2)N3)c2cc(Cl)c(-c3ccc(F)c4sc(N)nc34)c(F)c2n1 [Compound 141] | 500 to 5000 nM | 
CCc1c(F)ccc2cc(O)cc(-c3c(C#N)cc4c(N5CC6CCC(C5)N6)nc(OC[C@@]56CCCN5C[C@H](F)C6)nc4c3F)c12 [Compound 150] |  | < 500 nM
CN1CCC(Oc2nc(N3CC4CCC(C3)N4)c3cc(Cl)c(-c4cc(O)cc5ccccc45)c(F)c3n2)CC1 [Compound 38] |  | 500 to 5000 nM
CCOc1cc2c(N3CC4CCC(C3)N4)nc(OC[C@@]34CCCN3C[C@H](F)C4)nc2c(F)c1-c1cc(O)cc2ccc(F)c(CC)c12 [Compound 159] |  | 500 to 5000 nM
CN(C)CCCOc1nc(N2CC3CCC(C2)N3)c2cc(Cl)c(-c3c(N)cccc3F)c(F)c2n1 [Compound 9] |  | > 5000 nM
C#Cc1c(F)ccc2cc(O)cc(-c3c(OC)cc4c(N5CC6CCC(C5)N6)nc(OC[C@@]56CCCN5C[C@H](F)C6)nc4c3F)c12 [Compound 162] |  | < 500 nM
C#Cc1c(F)ccc2cc(O)cc(-c3cc(OC(C)C)c4c(N5CC6CCC(C5)N6)nc(OC[C@@]56CCCN5C[C@H](F)C6)nc4c3F)c12 [Compound 169] |  | < 500 nM
C#Cc1c(F)ccc2cc(O)cc(-c3c(Cl)cc4c(N5CC6CCC(C5)N6)nc(OC[C@@]56CCCN5C[C@H](F)C6)nc4c3F)c12 (single isomer, unassigned) [Compound 155] |  | < 500 nM
C#Cc1c(F)ccc2cc(O)cc(-c3c(OCC)cc4c(N5CC6CCC(C5)N6)nc(OC[C@@]56CCCN5C[C@H](F)C6)nc4c3F)c12 [Compound 161] |  | < 500 nM
